# Assay results from patent US20250368666A1, “INDAZOLE COMPOUNDS” (TYRA BIOSCIENCES, INC., priority 2022, published 2025).
# pIC50: −log10 of the molar value.
# Columns and labels:
# [1] = biological target: T1, FGFR1 (Homo sapiens, UniProt P11362); experiment: Kinase binding assay (kinase-tagged T7 phage, affinity beads, qPCR), Kd; settings: read-out: FGFR1 (Kd nM)
# T1 construct: made in house; host or cells: E. coli (BL21-derived), T7 phage
# How it was run: (§1)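 Phage-tagged kinase capture on small-molecule affinity resin, compound competition, qPCR quantitation; Kd from Levenberg-Marquardt Hill fit.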
# [2] = biological target: T2, FGFR3 (Homo sapiens, UniProt P22607); experiment: as above; settings: read-out: FGFR3 (Kd nM)
# T2 construct: made in house; host or cells: E. coli (BL21-derived), T7 phage
# How it was run: as §1
# [3] = tested on: KATO-III cell line (FGFR2 amplification); experiment: Cancer cell line cell viability assay (Cell Titer-Glo), 72 hr; assay type: cell-based; settings: Homo sapiens, KATO III
# How it was run: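 Intracellular ATP was measured by Cell Titer-Glo 2.0 luminescence after cells were incubated with compound dilutions (top 3 μM, 4-fold, 9 doses). Values were expressed relative to DMSO-treated cells and IC50 was calculated from a variable-slope dose-response curve.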
# [4] = tested on: KG-1 cell line (FGFR 1-fusion); experiment: as above; assay type: cell-based; settings: Homo sapiens, KG-1, KG-1 cell line (FGFR1-fusion)
# How it was run: (§2)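 5,000-20,000 cells/well o/n; cpd 9-pt 4x dil from 3 μM, n=3; 37° C/5% CO2; CTG 2.0 lumi; % DMSO ctrl; 4PL IC50.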
# [5] = tested on: RT112/84 cell line (FGFR3-fusion); experiment: as above; assay type: cell-based; settings: Homo sapiens, RT112/84, RT112/84 cell line (FGFR3-fusion)
# How it was run: as §2
# [6] = tested on: HuH7 cell line (FGF19 amplification); experiment: Cancer cell line cell viability assay (Cell Titer-Glo), 120 hr; assay type: cell-based; settings: Homo sapiens, Huh-7
# How it was run: as §2
# [7] = tested on: MDA-MB-453 cell line (FGFR4-Y367C); experiment: as above; assay type: cell-based; settings: Homo sapiens
# How it was run: as §2
# [8] = biological target: T3, FGFR2 (Homo sapiens, UniProt P21802); experiment: Kinase binding assay (kinase-tagged T7 phage, affinity beads, qPCR), Kd; settings: read-out: FGFR2 (Kd nM)
# T3 construct: made in house; host or cells: E. coli (BL21-derived), T7 phage
# How it was run: as §1
# [9] = biological target: T4, FGFR3 (V555M) (Homo sapiens, UniProt P22607, V555M); experiment: as above; settings: V555M mutant; read-out: FGFR3 (V555M) (Kd nM)
# T4 construct: made in house; host or cells: E. coli (BL21-derived), T7 phage
# How it was run: as §1
# [10] = biological target: T5, FGFR4 (Homo sapiens, UniProt P22455); experiment: as above; settings: read-out: FGFR4 (Kd nM)
# T5 construct: made in house; host or cells: E. coli (BL21-derived), T7 phage
# How it was run: as §1
# T5 sequence (P22455 22-802): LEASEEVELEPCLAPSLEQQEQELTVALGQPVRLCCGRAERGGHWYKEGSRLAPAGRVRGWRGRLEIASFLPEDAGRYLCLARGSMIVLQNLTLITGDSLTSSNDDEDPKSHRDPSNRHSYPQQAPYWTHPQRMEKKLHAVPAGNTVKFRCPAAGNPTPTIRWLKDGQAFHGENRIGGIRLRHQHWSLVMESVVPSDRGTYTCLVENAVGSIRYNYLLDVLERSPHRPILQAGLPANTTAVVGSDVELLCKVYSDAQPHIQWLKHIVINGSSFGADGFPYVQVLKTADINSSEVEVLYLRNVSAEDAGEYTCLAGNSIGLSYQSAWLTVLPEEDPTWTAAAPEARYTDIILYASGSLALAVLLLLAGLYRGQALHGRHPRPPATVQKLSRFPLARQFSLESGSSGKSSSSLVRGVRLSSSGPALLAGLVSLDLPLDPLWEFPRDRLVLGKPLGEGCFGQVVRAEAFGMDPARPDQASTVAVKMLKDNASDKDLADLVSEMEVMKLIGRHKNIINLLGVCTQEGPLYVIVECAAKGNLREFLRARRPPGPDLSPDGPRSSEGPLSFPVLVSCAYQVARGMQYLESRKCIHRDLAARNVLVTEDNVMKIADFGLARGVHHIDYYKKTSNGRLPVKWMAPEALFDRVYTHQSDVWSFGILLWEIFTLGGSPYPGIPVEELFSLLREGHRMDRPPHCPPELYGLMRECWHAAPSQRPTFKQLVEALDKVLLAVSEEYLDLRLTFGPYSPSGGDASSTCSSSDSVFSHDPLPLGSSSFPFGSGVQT
# T3 sequence (P21802 22-821): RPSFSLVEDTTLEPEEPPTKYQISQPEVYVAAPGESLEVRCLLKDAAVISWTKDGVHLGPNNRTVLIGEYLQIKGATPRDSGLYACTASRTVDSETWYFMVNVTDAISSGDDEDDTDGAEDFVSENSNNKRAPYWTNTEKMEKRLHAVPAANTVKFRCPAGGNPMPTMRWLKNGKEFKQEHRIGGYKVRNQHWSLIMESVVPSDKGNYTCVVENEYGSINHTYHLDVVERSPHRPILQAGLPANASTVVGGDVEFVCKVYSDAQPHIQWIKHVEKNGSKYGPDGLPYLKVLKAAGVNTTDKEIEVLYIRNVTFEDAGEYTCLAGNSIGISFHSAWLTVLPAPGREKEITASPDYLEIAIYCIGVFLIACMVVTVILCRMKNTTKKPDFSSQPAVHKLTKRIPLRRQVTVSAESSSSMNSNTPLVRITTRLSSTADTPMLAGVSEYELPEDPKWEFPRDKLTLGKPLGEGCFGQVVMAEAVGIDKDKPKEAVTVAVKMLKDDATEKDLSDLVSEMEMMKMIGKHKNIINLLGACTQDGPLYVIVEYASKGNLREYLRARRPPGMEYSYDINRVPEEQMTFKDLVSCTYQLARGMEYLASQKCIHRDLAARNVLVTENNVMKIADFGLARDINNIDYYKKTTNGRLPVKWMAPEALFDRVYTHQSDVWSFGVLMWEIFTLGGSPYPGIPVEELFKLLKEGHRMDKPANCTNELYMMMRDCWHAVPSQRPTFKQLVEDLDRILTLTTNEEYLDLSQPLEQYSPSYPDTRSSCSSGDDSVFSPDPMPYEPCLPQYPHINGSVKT
# T1 sequence (P11362 22-822): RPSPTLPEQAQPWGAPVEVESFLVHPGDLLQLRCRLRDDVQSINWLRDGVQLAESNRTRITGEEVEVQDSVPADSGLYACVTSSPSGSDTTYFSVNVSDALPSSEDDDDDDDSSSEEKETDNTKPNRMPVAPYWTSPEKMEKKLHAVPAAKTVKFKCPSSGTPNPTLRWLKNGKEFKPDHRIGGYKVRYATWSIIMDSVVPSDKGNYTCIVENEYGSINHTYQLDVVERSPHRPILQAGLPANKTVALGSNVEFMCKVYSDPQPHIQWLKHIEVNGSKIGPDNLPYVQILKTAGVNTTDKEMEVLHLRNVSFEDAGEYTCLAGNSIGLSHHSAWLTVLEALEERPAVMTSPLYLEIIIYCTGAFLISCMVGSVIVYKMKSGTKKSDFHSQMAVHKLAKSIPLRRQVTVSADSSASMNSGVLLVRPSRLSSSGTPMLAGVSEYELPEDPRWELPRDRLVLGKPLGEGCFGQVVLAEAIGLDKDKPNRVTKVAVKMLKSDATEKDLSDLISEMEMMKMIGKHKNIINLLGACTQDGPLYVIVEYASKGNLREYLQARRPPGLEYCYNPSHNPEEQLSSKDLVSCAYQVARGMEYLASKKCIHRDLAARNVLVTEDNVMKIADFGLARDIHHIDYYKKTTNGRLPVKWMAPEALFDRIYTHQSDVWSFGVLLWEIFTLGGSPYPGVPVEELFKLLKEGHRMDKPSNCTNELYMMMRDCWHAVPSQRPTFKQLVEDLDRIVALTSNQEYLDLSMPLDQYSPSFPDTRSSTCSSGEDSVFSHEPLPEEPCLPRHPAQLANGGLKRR
# T4 sequence (P22607 23-806 V555M): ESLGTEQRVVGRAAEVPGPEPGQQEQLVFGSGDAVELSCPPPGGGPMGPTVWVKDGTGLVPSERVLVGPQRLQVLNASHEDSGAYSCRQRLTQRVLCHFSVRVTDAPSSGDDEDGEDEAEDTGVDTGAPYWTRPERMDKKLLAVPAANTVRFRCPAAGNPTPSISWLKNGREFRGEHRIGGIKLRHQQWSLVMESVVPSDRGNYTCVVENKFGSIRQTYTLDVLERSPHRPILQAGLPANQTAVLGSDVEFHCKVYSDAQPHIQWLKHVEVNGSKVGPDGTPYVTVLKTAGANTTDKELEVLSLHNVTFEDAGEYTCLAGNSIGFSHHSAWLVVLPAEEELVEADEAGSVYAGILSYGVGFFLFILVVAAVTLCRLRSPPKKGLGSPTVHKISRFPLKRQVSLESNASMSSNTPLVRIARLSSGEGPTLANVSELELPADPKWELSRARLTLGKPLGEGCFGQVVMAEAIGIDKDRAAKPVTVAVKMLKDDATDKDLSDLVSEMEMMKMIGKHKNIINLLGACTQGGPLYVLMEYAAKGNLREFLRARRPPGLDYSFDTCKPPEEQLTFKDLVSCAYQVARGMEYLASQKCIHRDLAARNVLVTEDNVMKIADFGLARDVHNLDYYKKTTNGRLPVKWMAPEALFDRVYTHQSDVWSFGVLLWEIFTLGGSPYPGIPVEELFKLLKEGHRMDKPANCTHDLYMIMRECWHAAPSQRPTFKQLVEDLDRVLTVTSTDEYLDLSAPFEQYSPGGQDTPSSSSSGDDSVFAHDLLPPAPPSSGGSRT
# T2 sequence (P22607 23-806): as the sequence (P22607 23-806 V555M) above, with M533V counted along it
Structure (SMILES),Kd [1] [nM],Kd [2] [nM],pIC50 [3],pIC50 [4],pIC50 [5],pIC50 [6],pIC50 [7],Kd [8] [nM],Kd [9] [nM],Kd [10] [nM]
"CC(C)NC1(CC#N)CN(c2ncc(-c3n[nH]c4ccc(O[C@H](C)c5c(Cl)cncc5Cl)cc34)cc2F)C1 [Example 150, (R)-2-(1-(5-(5-(1-(3,5-dichloropyridin-4-yl)ethoxy)-1H-indazol-3-yl)-3-fluoropyridin-2-yl)-3-(isopropylamino)azetidin-3-yl)acetonitrile]",1 to 50,1 to 50,7.30 to 10.00,6.70 to 7.30,7.30 to 10.00,7.30 to 10.00,6.70 to 7.30,–,–,–
"CC(C)CNC1(C)CN(c2ncc(-c3n[nH]c4ccc(O[C@H](C)c5c(Cl)cncc5Cl)cc34)cc2F)C1 [Example 138, 1-[5-[5-[(1R)-1-(3,5-dichloro-4-pyridyl)ethoxy]-1H-indazol-3-yl]-3-fluoro-2-pyridyl]-N-isobutyl-3-methyl-azetidin-3-amine]",1 to 50,1 to 50,7.30 to 10.00,6.70 to 7.30,7.30 to 10.00,–,6.70 to 7.30,1 to 50,1 to 50,1 to 50
"COc1cc2[nH]nc(-c3ccc(N4CC(C)(NCCO)C4)nc3)c2cc1O[C@H](C)c1c(Cl)cncc1Cl [Example 83, (R)-2-((1-(5-(5-(1-(3,5-dichloropyridin-4-yl)ethoxy)-6-methoxy-1H-indazol-3-yl)pyridin-2-yl)-3-methylazetidin-3-yl)amino)ethan-1-ol]",1 to 50,1 to 50,7.30 to 10.00,6.70 to 7.30,7.30 to 10.00,–,7.30 to 10.00,1 to 50,1 to 50,1 to 50
"C[C@@H](Oc1ccc2[nH]nc(-c3cnc(N4CC(C)(N5CCS(=O)(=O)CC5)C4)c(F)c3)c2c1)c1c(Cl)cncc1Cl [Example 167, 4-[1-[5-[5-[(1R)-1-(3,5-dichloro-4-pyridyl)ethoxy]-1H-indazol-3-yl]-3-fluoro-2-pyridyl]-3-methyl-azetidin-3-yl]-1,4-thiazinane 1,1-dioxide]",1 to 50,1 to 50,7.30 to 10.00,6.70 to 7.30,7.30 to 10.00,–,7.30 to 10.00,1 to 50,1 to 50,1 to 50

# Now from value to compound:
Kd [1] [nM],Kd [2] [nM],pIC50 [3],pIC50 [4],pIC50 [5],pIC50 [6],pIC50 [7],Kd [8] [nM],Kd [9] [nM],Kd [10] [nM],Structure (SMILES)
1 to 50,1 to 50,6.70 to 7.30,6.70 to 7.30,7.30 to 10.00,7.30 to 10.00,6.70 to 7.30,–,–,–,"C[C@@H](Oc1ccc2[nH]nc(-c3cnc(N4CC(CC#N)(NCC5CC5)C4)c(F)c3)c2c1)c1c(Cl)cncc1Cl [Example 151, 2-[3-(Cyclopropylmethyl-amino)-1-[5-[5-[(1R)-1-(3,5-dichloro-4-pyridyl)ethoxy]-1H-indazol-3-yl]-3-fluoro-2-pyridyl]azetidin-3-yl]acetonitrile]"
1 to 50,1 to 50,7.30 to 10.00,6.70 to 7.30,7.30 to 10.00,–,7.30 to 10.00,1 to 50,1 to 50,1 to 50,"C[C@@H](Oc1ccc2[nH]nc(-c3cnc(N4CC(C)(NCCS(C)(=O)=O)C4)c(F)c3)c2c1)c1c(Cl)cncc1Cl [Example 166, (R)-1-(5-(5-(1-(3,5-Dichloropyridin-4-yl)ethoxy)-1H-indazol-3-yl)-3-fluoropyridin-2-yl)-3-methyl-N-(2-(methylsulfonyl)ethyl)azetidin-3-amine]"
1 to 50,1 to 50,7.30 to 10.00,6.70 to 7.30,7.30 to 10.00,–,6.70 to 7.30,1 to 50,1 to 50,1 to 50,"CC[C@H](C)NC1(C)CN(c2ccc(-c3n[nH]c4ccc(O[C@H](C)c5c(Cl)cncc5Cl)cc34)cn2)C1 [Example 228, 1-[5-[5-[(1R)-1-(3,5-dichloro-4-pyridyl)ethoxy]-1H-indazol-3-yl]-2-pyridyl]-3-methyl-N-[(1S)-1-meth-ylpropyl]azetidin-3-amine]"
